# From patent US6124456A, “Pyrazolopyridine compound and pharmaceutical use thereof” (Fujisawa Pharmaceutical Co., Ltd., priority 1996, dated 2000)
# Test system: human A1 receptor
# Test: Adenosine antagonistic activity: radioligand binding with 3H-DPCPX
# Details: at the dose of 1.0×10^-7 M; radioligand 3H-DPCPX 2×10^-9 M
# Text: Test: Adenosine Antagonistic Activity
# The adenosine antagonistic activity of the test compound was examined by radioligand binding techniques using 8-cyclopentyl-1,3-dipropylxanthine, dipropyl-2,3-^3 H(N)] (^3 H-DPCPX, 2×10^-9 M) for human A^1 receptor.
structure (smiles),measurement,value
"CN1CCC(n2nc(-c3c(-c4ccccc4)nn4ccccc34)ccc2=O)CC1 [Example 2, 3-[2-(1-methylpiperidin-4-yl)-3-oxo-2,3-dihydropyridazin-6-yl]-2-phenylpyrazolo[1,5-a]pyridine]",inhibition (%),more than 90%
